Legend:
[1] = tested on: ARHGEF2 Ser^151 phosphorylation; assay: Western blot of ARHGEF2 Ser^151 phosphorylation in treated HEK293T cells; type: cell-based; settings: 1mM for 6 hours, normalized with total ARHGEF2, three independent experiments
[2] = tested on: ARHGEF2; settings: cited from earlier work; for effect on ARHGEF2 release from microtubules and RHOA activation: disruption of polymerized microtubules; for effect on ARHGEF2 activation: GPCR ligands
[3] = target: T1, 14-3-3 (Mus musculus, UniProt P63101); assay: Microscale thermophoresis; type: binding, murine; settings: MST; peptides at 100 nM; GST-14-3-3 serial dilutions 195 μM to 2 nM; 20 mM HEPES pH 7.4, 150 mM NaCl, 1 mM DTT, 0.05 % Tween20; three independent experiments
T1 sequence (P63101 1-245): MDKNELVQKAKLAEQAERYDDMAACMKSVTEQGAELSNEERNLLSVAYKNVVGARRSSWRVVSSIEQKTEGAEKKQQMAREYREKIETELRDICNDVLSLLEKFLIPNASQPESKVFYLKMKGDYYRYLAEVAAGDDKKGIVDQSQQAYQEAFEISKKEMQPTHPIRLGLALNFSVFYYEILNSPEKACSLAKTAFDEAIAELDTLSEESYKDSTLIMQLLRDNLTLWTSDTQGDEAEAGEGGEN

In the case of NC(=O)c1ncn([C@@H]2O[C@H](COP(=O)(O)O)[C@@H](O)[C@H]2O)c1N [5-Aminoimidazole-4-carboxamide ribonucleotide], the “ARHGEF2 Ser^151 phosphorylation” value [1] is reported as “no apparent change in phosphorylation of this residue was observed”.
For COc1cc2c(c(OC)c1OC)-c1ccc(OC)c(=O)cc1[C@@H](NC(C)=O)CC2 [Colchicine], the “effect on ARHGEF2 release from microtubules and RHOA activation” value (from here on “effect on ARHGEF2 release”) [2] is given as “release ARHGEF2 and lead to potent activation of RHOA”.
In the case of COC(=O)Nc1nc2ccc(C(=O)c3cccs3)cc2[nH]1 [Nocodazol], the “effect on ARHGEF2 release” value [2] is listed as “release ARHGEF2 and lead to potent activation of RHOA”.
For CC(=O)O[C@H]1C(=O)[C@@]2(C)[C@H]([C@H](OC(=O)c3ccccc3)[C@]3(O)C[C@H](OC(=O)[C@H](O)[C@@H](NC(=O)c4ccccc4)c4ccccc4)C(C)=C1C3(C)C)[C@]1(OC(C)=O)CO[C@@H]1C[C@@H]2O [Paclitaxel], the “effect on ARHGEF2 release” value [2] is given as “an effect that can be reversed by the microtubule stabilizing drug Paclitaxel”.
In the case of RRPLDPRRR[(p)Ser885]LPAGDA[Lys(FITC)], the “binding to 14-3-3 (in words)” value [3] is reported as “no binding was detected”.
For SSLSLAKSV[(p)Ser^151]TTNIAG[Lys(FITC)], the “binding to 14-3-3 (in words)” value [3] was “no binding was detected”.
In the case of lysophosphatidic acid, the “effect on ARHGEF2 activation” value [2] is given as “trigger activation of ARHGEF2”.
For thrombin, the “effect on ARHGEF2 activation” value [2] is listed as “trigger activation of ARHGEF2”.
